Data published in patent US20080026996A1, “Selective Vpac2 Receptor Reptide Agonists” (ELI LILLY AND COMPANY, priority 2004, published 2008).
Where a SMILES comes first, the peptide text is derived from it. Where no end group is shown, it is not given here. [ ]: non-standard residue; d: D form. The star is where a group is joined. hArg = N=C(N)NCCCC[C@H](N)C(=O)O; Cit = NC(=O)NCCC[C@H](N)C(=O)O; Hexanoyl = CCCCCC(=O)*; Aib = CC(C)(N)C(=O)O

How the values were obtained:
[1] = Rat serum stability studies (remaining active peptide by DiscoveRx cAMP on CHO-VPAC2 cells); assay type: in vitro ADME
Description: Store the aliquot with aprotinin at 4° C. Store the aliquot without aprotinin at 37° C. […] […] Incubate in room temperature for 30 minutes. Remove the supernatant. […] Incubate on the shaker (300 rpm) for 1 hour. Proceed as normal with the DiscoveRx kit. Include cAMP standards in column 12. Determine EC50 values from the cAMP assay data.

human PAC1 = target: T1, human PAC1 (Homo sapiens, UniProt P41586); test: Filter binding assay, membranes of cells transiently transfected with human PAC1, 125I-labeled PACAP-27 tracer (Table 2); design: expressed in transfected cells; details: read-out: Human PAC1 Receptor Binding
T1 sequence (P41586 21-468): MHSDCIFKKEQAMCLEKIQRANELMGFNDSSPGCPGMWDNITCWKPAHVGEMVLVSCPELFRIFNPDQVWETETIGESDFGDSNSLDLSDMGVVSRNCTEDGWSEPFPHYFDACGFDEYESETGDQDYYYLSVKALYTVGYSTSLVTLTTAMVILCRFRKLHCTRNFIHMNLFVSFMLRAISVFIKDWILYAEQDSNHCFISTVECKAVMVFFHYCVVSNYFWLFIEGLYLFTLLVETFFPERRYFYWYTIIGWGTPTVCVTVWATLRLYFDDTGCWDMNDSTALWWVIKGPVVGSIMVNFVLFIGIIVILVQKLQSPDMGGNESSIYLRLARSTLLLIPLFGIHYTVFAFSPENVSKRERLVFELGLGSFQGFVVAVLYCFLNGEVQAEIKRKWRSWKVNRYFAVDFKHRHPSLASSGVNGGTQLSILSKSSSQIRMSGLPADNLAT
In short: (§1)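 Radioligand displacement was measured with 2.5 μg membrane protein per well and roughly 40000 cpm of iodinated tracer. After a 1-hour incubation, bound and free label were separated on BSA-blocked glass-fibre filters and quantified by scintillation.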

human VPAC1 = target: T2, human VPAC1 (Homo sapiens, UniProt P32241); test: Filter binding assay, membranes of cells transiently transfected with human VPAC1, 125I-labeled VIP tracer (Table 2); design: expressed in transfected cells; details: read-out: Human VPAC1 Receptor Binding
T2 sequence (P32241 31-457): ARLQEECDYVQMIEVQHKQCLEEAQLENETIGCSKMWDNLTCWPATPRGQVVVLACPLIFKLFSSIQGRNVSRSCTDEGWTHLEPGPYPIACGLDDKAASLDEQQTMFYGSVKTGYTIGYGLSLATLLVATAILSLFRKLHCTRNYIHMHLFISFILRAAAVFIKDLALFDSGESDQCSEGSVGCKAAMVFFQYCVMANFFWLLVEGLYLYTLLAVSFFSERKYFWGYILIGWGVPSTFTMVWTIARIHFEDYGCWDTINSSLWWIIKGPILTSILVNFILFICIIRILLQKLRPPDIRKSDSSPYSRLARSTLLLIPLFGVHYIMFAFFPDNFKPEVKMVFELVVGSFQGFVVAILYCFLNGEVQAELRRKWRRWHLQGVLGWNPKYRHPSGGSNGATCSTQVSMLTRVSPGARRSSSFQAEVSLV
In short: as §1

human VPAC2 [2] = target: T3, human VPAC2 (Homo sapiens, UniProt P41587); test: Filter binding assay, membranes of stable VPAC2 cell line, 125I-labeled VIP tracer (Table 2); details: read-out: Human VPAC2 Receptor Binding
T3 construct: expressed in transfected cells
T3 sequence (P41587 24-438): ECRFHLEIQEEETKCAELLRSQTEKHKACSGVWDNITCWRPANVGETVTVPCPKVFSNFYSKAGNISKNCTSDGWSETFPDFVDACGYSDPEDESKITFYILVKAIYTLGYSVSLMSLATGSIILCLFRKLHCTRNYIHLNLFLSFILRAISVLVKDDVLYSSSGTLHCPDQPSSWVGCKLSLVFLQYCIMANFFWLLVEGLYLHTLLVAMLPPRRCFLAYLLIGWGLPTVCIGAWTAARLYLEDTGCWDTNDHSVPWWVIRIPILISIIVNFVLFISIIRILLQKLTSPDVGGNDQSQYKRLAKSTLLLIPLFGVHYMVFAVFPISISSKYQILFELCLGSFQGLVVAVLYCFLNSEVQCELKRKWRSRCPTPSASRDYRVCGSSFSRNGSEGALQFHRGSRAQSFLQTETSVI
In short: as §1

human VPAC2 [3] = target: T3, human VPAC2; test: Alpha screen cAMP in vitro potency, human VPAC2 receptor; assay type: cell-based; details: cAMP generation; single result from two analyses performed in a single run; read-out: Human VPAC2 Receptor: Alpha Screen EC50
In short: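 Cells were detached with enzyme-free dissociation buffer, washed into stimulation buffer and used at 50,000 cells per data point. Stimuli and AlphaScreen acceptor beads were added for 60 minutes, then lysis buffer with donor beads for 60 to 120 minutes; the AlphaScreen signal reports intracellular cAMP.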

With “Hexanoyl-HSDAVFTDNYTRLA[Aib]QVAA[Aib]KYLQSIKNKRYGGPSSGAPPPS [Agonist P301]” the “Rat Serum Stability (estimated purity in % after 18 hours)” value [1] was 6.86%, the IC50 (human PAC1) was greater than 25000 nM and the IC50 (human VPAC1) was greater than 3000 nM. It also gave an IC50 (human VPAC2 [2]) of 7.27 nM.

With “Hexanoyl-HSDAVFTDNYTRLLAKLAAQKYLQSIKNKRYGGPSSGAPPPS [Agonist P197]” the “Rat Serum Stability (estimated purity in % after 18 hours)” value [1] was 5.68%, the IC50 (human VPAC1) was 447 nM and the IC50 (human VPAC2 [2]) was 0.31 nM. It also gave an EC50 (human VPAC2 [3]) of 0.09 nM.

With `CCCCCC(=O)N[C@@H](Cc1c[nH]cn1)C(=O)N[C@@H](CO)C(=O)N[C@@H](CC(=O)O)C(=O)N[C@@H](C)C(=O)N[C@H](C(=O)N[C@@H](Cc1ccccc1)C(=O)N[C@H](C(=O)N[C@@H](CC(=O)O)C(=O)N[C@@H](CC(N)=O)C(=O)N[C@@H](Cc1ccc(O)cc1)C(=O)N[C@H](C(=O)N[C@@H](CCCNC(=N)N)C(=O)N[C@@H](CC(C)C)C(=O)N[C@@H](CCCNC(=N)N)C(=O)N[C@@H](CCCCN)C(=O)N[C@@H](CCC(N)=O)C(=O)N[C@H](C(=O)N[C@@H](C)C(=O)N[C@@H](C)C(=O)N[C@@H](CCCCN)C(=O)N[C@@H](CCCNC(=N)N)C(=O)N[C@@H](Cc1ccc(O)cc1)C(=O)N[C@@H](CC(C)C)C(=O)N[C@@H](CCC(N)=O)C(=O)N[C@@H](CO)C(=O)N[C@H](C(=O)N[C@@H](CCCNC(=N)N)C(=O)N[C@@H](CC(N)=O)C(=O)NCC(=O)NCC(=O)N1CCC[C@H]1C(=O)N[C@@H](CO)C(=O)N[C@@H](CO)C(=O)NCC(=O)N[C@@H](C)C(=O)N1CCC[C@H]1C(=O)N1CCC[C@H]1C(=O)N1CCC[C@H]1C(=O)N[C@@H](CO)C(=O)O)[C@@H](C)CC)C(C)C)[C@@H](C)O)[C@@H](C)O)C(C)C` [Agonist P213] (Hexanoyl-HSDAVFTDNYTRLRKQVAAKRYLQSIRNGGPSSGAPPPS-OH; C-terminus assumed) the “Rat Serum Stability (estimated purity in % after 18 hours)” value [1] was 0.04%, the IC50 (human VPAC1) was 32.2 nM and the IC50 (human VPAC2 [2]) was 0.27 nM. For the same compound, the EC50 (human VPAC2 [3]) was 0.24 nM.

For “Hexanoyl-HSDAVFTDNYTRL[Aib]KQLAAK[Aib]YLQSIKNKRYGGPSSGAPPPS [Agonist P241]”, the “Rat Serum Stability (estimated purity in % after 18 hours)” value [1] was 62.55%, the IC50 (human PAC1) was greater than 25000 nM and the IC50 (human VPAC1) was greater than 3000 nM. For the same compound, the IC50 (human VPAC2 [2]) was 18.1 nM.

For “Hexanoyl-HSDA[Aib]FTDNYTRLRKQVAAKKYLQSIKNKRYGGPSSGAPPPS [Agonist P212]”, the “Rat Serum Stability (estimated purity in % after 18 hours)” value [1] was 0.21%, the IC50 (human VPAC1) was 198 nM and the IC50 (human VPAC2 [2]) was 0.19 nM. It also gave an EC50 (human VPAC2 [3]) of 0.12 nM.

With “Hexanoyl-HSDAVFTDNYTRL[Aib]KQVAALKYLQSIKNKRYGGPSSGAPPPS [Agonist P259]” the “Rat Serum Stability (estimated purity in % after 18 hours)” value [1] was 17.65%, the IC50 (human PAC1) was greater than 3000 nM and the IC50 (human VPAC1) was 3460 nM. The IC50 (human VPAC2 [2]) was 13.2 nM.

In the case of “Hexanoyl-HSD[dA]VFTDNYTRLRKQVAAKKYLQSIKNKRYGGPSSGAPPPS [Agonist P207]”, the “Rat Serum Stability (estimated purity in % after 18 hours)” value [1] is reported as less than 0.29%, the IC50 (human VPAC1) is reported as 282 nM and the IC50 (human VPAC2 [2]) is reported as 0.81 nM. The EC50 (human VPAC2 [3]) was 0.86 nM.

For “Hexanoyl-HSDAVFTANYTRLRKQVAAKKYLQSIKNKRYGGPSSGAPPPS [Agonist P158]”, the “Rat Serum Stability (estimated purity in % after 18 hours)” value [1] was 0.32%, the IC50 (human VPAC1) was 25.7 nM and the IC50 (human VPAC2 [2]) was 0.21 nM. For the same compound, the EC50 (human VPAC2 [3]) was 0.11 nM.

With “Hexanoyl-HSDAVFTDNYTRLRKQVAAKLYLQSIKNKRYGGPSSGAPPPS [Agonist P185]” the “Rat Serum Stability (estimated purity in % after 18 hours)” value [1] was 0.27%, the IC50 (human VPAC1) was 358 nM and the IC50 (human VPAC2 [2]) was 0.41 nM. The EC50 (human VPAC2 [3]) was 0.18 nM.

With “Hexanoyl-HSDAVFTDNYTRLR[Aib]QAAA[Aib]KYLQSIKNKRYGGPSSGAPPPS [Agonist P324]” the “Rat Serum Stability (estimated purity in % after 18 hours)” value [1] was 13.64%, the IC50 (human VPAC1) was greater than 3000 nM and the IC50 (human VPAC2 [2]) was 0.43 nM. It also gave an EC50 (human VPAC2 [3]) of 0.23 nM.

In the case of “Hexanoyl-HSDAVFTDNYTRL[Cit][Aib]QVAA[Aib]KYLQSIKNKRYGGPSSGAPPPS [Agonist P320]”, the “Rat Serum Stability (estimated purity in % after 18 hours)” value [1] is reported as 28.59%, the IC50 (human VPAC1) is reported as greater than 3000 nM and the IC50 (human VPAC2 [2]) is reported as 1.2 nM. It also gave an EC50 (human VPAC2 [3]) of 0.49 nM.

For “Hexanoyl-HSDAVFTENYTRLRKQVAAKKYLQSIKNKRYGGPSSGAPPPS [Agonist P159]”, the “Rat Serum Stability (estimated purity in % after 18 hours)” value [1] was 0.15%, the IC50 (human VPAC1) was 131 nM and the IC50 (human VPAC2 [2]) was 0.17 nM. It also gave an EC50 (human VPAC2 [3]) of 0.17 nM.

With “Hexanoyl-HSDAVFTDNYTRLR[Aib]QVAA[Aib]AYLQSIKNKRYGGPSSGAPPPS [Agonist P341]” the “Rat Serum Stability (estimated purity in % after 18 hours)” value [1] was 12.82%, the IC50 (human VPAC1) was greater than 3000 nM and the IC50 (human VPAC2 [2]) was 2.39 nM. For the same compound, the EC50 (human VPAC2 [3]) was 0.38 nM.

For `CCCCCC(=O)N[C@@H](Cc1c[nH]cn1)C(=O)N[C@@H](CO)C(=O)N[C@@H](CC(=O)O)C(=O)N[C@@H](C)C(=O)N[C@H](C(=O)N[C@@H](Cc1ccccc1)C(=O)N[C@H](C(=O)N[C@@H](CC(=O)O)C(=O)N[C@@H](CC(N)=O)C(=O)N[C@@H](Cc1ccc(O)cc1)C(=O)N[C@H](C(=O)N[C@@H](CCCNC(=N)N)C(=O)N[C@@H](CC(C)C)C(=O)N[C@@H](CCCNC(=N)N)C(=O)N[C@@H](CCCCN)C(=O)N[C@@H](CCC(N)=O)C(=O)N[C@H](C(=O)N[C@@H](C)C(=O)N[C@@H](C)C(=O)N[C@@H](CCCNC(=N)N)C(=O)N[C@@H](CCCNC(=N)N)C(=O)N[C@@H](Cc1ccc(O)cc1)C(=O)N[C@@H](CC(C)C)C(=O)N[C@@H](CCC(N)=O)C(=O)N[C@@H](CO)C(=O)N[C@H](C(=O)N[C@@H](CCCNC(=N)N)C(=O)N[C@@H](CC(N)=O)C(=O)NCC(=O)NCC(=O)N1CCC[C@H]1C(=O)N[C@@H](CO)C(=O)N[C@@H](CO)C(=O)NCC(=O)N[C@@H](C)C(=O)N1CCC[C@H]1C(=O)N1CCC[C@H]1C(=O)N1CCC[C@H]1C(=O)N[C@@H](CO)C(=O)O)[C@@H](C)CC)C(C)C)[C@@H](C)O)[C@@H](C)O)C(C)C` [Agonist P214] (Hexanoyl-HSDAVFTDNYTRLRKQVAARRYLQSIRNGGPSSGAPPPS-OH; C-terminus assumed), the “Rat Serum Stability (estimated purity in % after 18 hours)” value [1] was 0.07%, the IC50 (human VPAC1) was 14.5 nM and the IC50 (human VPAC2 [2]) was 0.19 nM. It also gave an EC50 (human VPAC2 [3]) of 0.16 nM.

For “Hexanoyl-HSDAVFTDNYTRLRLQVAAKKYLQSIKNKRYGGPSSGAPPPS [Agonist P179]”, the “Rat Serum Stability (estimated purity in % after 18 hours)” value [1] was 1.66%, the IC50 (human VPAC1) was 390 nM and the IC50 (human VPAC2 [2]) was 0.42 nM. For the same compound, the EC50 (human VPAC2 [3]) was 0.24 nM.

In the case of “Hexanoyl-HSDAVFTDNYTRL[hArg][Aib]QVAA[Aib]KYLQSIKNKRYGGPSSGAPPPS [Agonist P316]”, the “Rat Serum Stability (estimated purity in % after 18 hours)” value [1] is reported as 15.06%, the IC50 (human VPAC1) is reported as greater than 3000 nM and the IC50 (human VPAC2 [2]) is reported as 0.38 nM. It also gave an EC50 (human VPAC2 [3]) of 0.3 nM.
